Assay results: US12560588B2, “High-efficiency screening method for RNA-targeting drugs using nanopores” (KOREA RESEARCH INSTITUTE OF BIOSCIENCE AND BIOTECHNOLOGY, priority 2020, dated 2026)

Tested on: ARS mutant (ARS-Mut) with four base mutations (U28G, G42C, U47C and U51C)
Assay type: binding

Compound: Nc1ncnc2nc[nH]c12 [adenine]
- change versus free ARS-Mut: not much different
- td: 0.50 ms
